Our source for the IC50 values is US8338587B2, “Compounds” (AstraZeneca AB, priority 2009, dated 2012).

The target of the assay is T1, recombinant human GR (Homo sapiens, UniProt P04150).
T1 construct: purchased Panvera/Invitrogen P2812 (kit P2893)
T1 sequence (P04150 1-777): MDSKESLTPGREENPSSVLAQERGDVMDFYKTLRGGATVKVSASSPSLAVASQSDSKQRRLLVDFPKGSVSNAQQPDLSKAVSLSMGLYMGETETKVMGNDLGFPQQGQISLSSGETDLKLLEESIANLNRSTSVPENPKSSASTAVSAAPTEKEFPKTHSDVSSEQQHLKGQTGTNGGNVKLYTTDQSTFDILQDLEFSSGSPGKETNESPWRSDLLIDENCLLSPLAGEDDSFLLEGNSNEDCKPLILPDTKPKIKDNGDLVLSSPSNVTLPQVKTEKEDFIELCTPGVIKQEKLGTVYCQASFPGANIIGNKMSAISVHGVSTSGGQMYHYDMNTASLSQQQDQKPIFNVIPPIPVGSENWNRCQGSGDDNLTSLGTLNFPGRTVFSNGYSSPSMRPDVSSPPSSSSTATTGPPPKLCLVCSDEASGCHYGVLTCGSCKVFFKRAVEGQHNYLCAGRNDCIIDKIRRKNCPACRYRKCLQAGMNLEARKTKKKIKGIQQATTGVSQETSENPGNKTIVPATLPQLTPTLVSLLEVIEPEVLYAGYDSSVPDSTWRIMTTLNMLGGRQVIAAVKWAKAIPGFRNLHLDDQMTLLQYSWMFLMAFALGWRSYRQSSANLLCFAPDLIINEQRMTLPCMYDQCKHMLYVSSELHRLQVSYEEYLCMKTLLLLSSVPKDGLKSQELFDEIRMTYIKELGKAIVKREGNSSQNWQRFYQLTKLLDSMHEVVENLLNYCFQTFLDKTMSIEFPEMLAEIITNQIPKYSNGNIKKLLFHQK
Description: Human Glucocorticoid Receptor (GR) Assay (fluorescence polarization competition, Panvera/Invitrogen kit). To be noted: GS Red Fluoromone tracer, 2 hours at room temperature, 100% control 10 μM Dexamethasone, read-out: Inhibition of GR binding, IC50. As to the method: Human Glucocorticoid Receptor (GR) Assay The assay is based on a commercial kit from Panvera/Invitrogen (Part number P2893). The assay technology is fluorescence polarization. The kit utilises recombinant human GR (Panvera, Part number P2812), a Fluoromone™ labelled tracer (GS Red, Panvera, Part number P2894) and a Stabilizing Peptide 10× (Panvera, Part number P2815). The GR and Stabilizing Peptide reagents are stored at −70° C. while the GS Red is stored at −20° C. Also included in the kit are 1M DTT (Panvera, Part number P2325, stored at −20° C.) and GR Screening buffer 10× (Panvera, Part number P2814, stored at −70° C. initially but once thawed stored at room temperature). Avoid repeated freeze/thaws for all reagents. The GR Screening buffer 10× comprises 100 mM potassium phosphate, 200 mM sodium molybdate, 1 mM EDTA and 20% DMSO. Test compounds (1 μL) and controls (1 μL) in 100% DMSO were added to black is polystyrene 384-well plates (Greiner low volume black flat-bottom, part number 784076). 0% control was 100% DMSO and 100% control was 10 μM Dexamethasone. Background solution (8 μL; assay buffer 10×, Stabilizing Peptide, DTT and ice cold MQ water) was added to the background wells. GS Red solution (7 μL; assay buffer 10×, Stabilizing Peptide, DTT, GS Red and ice cold water) was added to all wells except background wells. GR solution (7 μL; assay buffer 10×, Stabilizing Peptide, DTT, GR and ice cold water) was added to all wells. The plate was sealed and incubated in a dark at room temperature for 2 hours. The plate was read in an Analyst plate reader (LJL Biosystems/Molecular Devices Corporation) or other similar plate reader capable of recording fluorescence polarization (excitation wavelength 530 nm, emission wavelength 590 nm and a dichroic mirror at 561 nm).
`C[C@]12Cc3cnn(-c4ccc(F)nc4)c3C=C1CC[C@H]1[C@@H]3CC[C@](OC(=O)[C@H]4CCCO4)(C(=O)SCCO)[C@@]3(C)C[C@H](O)[C@@]12F` [Example 14, (1R,3aS,3bS,10aS,10bR,11S,12aS)-10b-Fluoro-7-(6-fluoropyridin-3-yl)-11-hydroxy-1-{[(2-hydroxyethyl)sulfanyl]carbonyl}-10a,12a-dimethyl-1,2,3,3a,3b,4,5,7, 10, 10a, 10,11,12,12a-tetradecahydrocyclopenta[5,6]naphtho[1,2-f]indazol-1-yl (2R)-tetrahydrofuran-2-carboxylate]: the IC50 came to 0.65 nM. Then `C[C@@H]1C[C@H]2[C@@H]3CCC4=Cc5c(cnn5-c5ccc(F)cc5)C[C@]4(C)[C@@]3(F)[C@@H](O)C[C@]2(C)[C@@]1(OC(=O)c1cocn1)C(=O)SCC#N` [Example 29, (1R,2R,3aS,3bS,10aS,10bR,11S,12aS)-10b-Fluoro-1-{[(cyanomethyl)sulfanyl]carbonyl}-7-(4-fluorophenyl)-11-hydroxy-2,10a,12a-trimethyl-1,2,3,3a,3b,4,5,7,10,10a,10b,11,12,12a-tetradecahydrocyclopenta[5,6]naphtho[1,2-f]indazol-1-yl 1,3-oxazole-4-carboxylate], with 5.5 nM; and `COCC(=O)O[C@]1(C(=O)SCC#N)CC[C@H]2[C@@H]3C[C@H](C)C4=Cc5c(cnn5-c5ccc(F)nc5)C[C@]4(C)[C@H]3[C@@H](O)C[C@@]21C` [Example 24, (1R,3aS,3bS,5S,10aR,10bS,11S,12aS)-1-{[(Cyanomethyl)sulfanyl]carbonyl}-7-(6-fluoropyridin-3-yl)-11-hydroxy-5,10a,12a-trimethyl-1,2,3,3a,3b,4,5,7,10,10a,10b,11,12,12a-tetradecahydrocyclopenta[5,6]naphtho[1,2-f]indazol-1-yl methoxyacetate], with 1.1 nM; and `C[C@H]1C[C@@H]2[C@H]([C@@H](O)C[C@@]3(C)[C@H]2CC[C@]3(OC(=O)c2ccco2)C(=O)SCC#N)[C@@]2(C)Cc3cnn(-c4ccc(F)nc4)c3C=C12` [Example 22, (1R,3aS,3bS,5S,10aR,10bS,11S,12aS)-1-{[(Cyanomethyl)sulfanyl]carbonyl}-7-(6-fluoropyridin-3-yl)-11-hydroxy-5,10a,12a-trimethyl-1,2,3,3a,3b,4,5,7,10,10a,10b,11,12,12a-tetradecahydrocyclopenta[5,6]naphtho[1,2-f]indazol-1-yl furan-2-carboxylate], with 1.7 nM. As to `C[C@]12Cc3cnn(-c4ccc(F)nc4)c3C=C1CC[C@H]1[C@@H]3CC[C@](OC(=O)[C@@H]4CCCO4)(C(=O)SCC#N)[C@@]3(C)C[C@H](O)[C@@]12F` [Example 17, (1R,3aS,3bS,10aS,10bR,11S,12aS)-1-{[(Cyanomethyl)sulfanyl]carbonyl}-10b-fluoro-7-(6-fluoropyridin-3-yl)-11-hydroxy-10a,12a-dimethyl-1,2,3,3a,3b,4,5,7,10,10a,10b,11,12,12a-tetradecahydrocyclopenta[5,6]naphtho[1,2-f]indazol-1-yl (2S)-tetrahydrofuran-2-carboxylate], the IC50 stood at 0.55 nM.

As to `C[C@@H]1C[C@H]2[C@@H]3CCC4=Cc5c(cnn5-c5ccc(F)nc5)C[C@]4(C)[C@@]3(F)[C@@H](O)C[C@]2(C)[C@@]1(OC(=O)c1cocn1)C(=O)SCF` [Example 4, (1R,2R,3aS,3bS,10aS,10bR,11S,12aS)-10b-Fluoro-1-{[(fluoromethyl)sulfanyl]carbonyl}-7-(6-fluoropyridin-3-yl)-11-hydroxy-2,10a,12a-trimethyl-1,2,3,3a,3b,4,5,7,10,10a,10b,11,12,12a-tetradecahydrocyclopenta[5,6]naphtho[1,2-f]indazol-1-yl 1,3-oxazole-4-carboxylate], the IC50 is 2.8 nM. Then `COCC(=O)O[C@]1(C(=O)SCC#N)[C@H](C)C[C@H]2[C@@H]3CCC4=Cc5c(cnn5-c5ccc(F)cc5)C[C@]4(C)[C@@]3(F)[C@@H](O)C[C@@]21C` [Example 27, (1R,2R,3aS,3bS,10aS,10bR,11S,12aS)-10b-Fluoro-1-{[(cyanomethyl)sulfanyl]carbonyl}-7-(4-fluorophenyl)-11-hydroxy-2,10a,12a-trimethyl-1,2,3,3a,3b,4,5,7,10,10a,10b,11,12,12a-tetradecahydrocyclopenta[5,6]naphtho[1,2-f]indazol-1-yl methoxyacetate], with 6 nM. Then `C[C@H]1C[C@@H]2[C@H]([C@@H](O)C[C@@]3(C)[C@H]2CC[C@]3(OC(=O)c2ccco2)C(=O)SCF)[C@@]2(C)Cc3cnn(-c4ccc(F)nc4)c3C=C12` [Example 21, (1R,3aS,3bS,5S,10aR,10bS,11S,12aS)-1-{[(Fluoromethyl)sulfanyl]carbonyl}-7-(6-fluoropyridin-3-yl)-11-hydroxy-5,10a,12a-trimethyl-1,2,3,3a,3b,4,5,7,10,10a,10b,11,12,12a-tetradecahydrocyclopenta[5,6]naphtho[1,2-f]indazol-1-yl furan-2-carboxylate], with 2.8 nM.

For `COCC(=O)O[C@]1(C(=O)SCF)CC[C@H]2[C@@H]3C[C@H](C)C4=Cc5c(cnn5-c5ccc(F)nc5)C[C@]4(C)[C@H]3[C@@H](O)C[C@@]21C` [Example 8, (1R,3aS,3bS,5S,10aR,10bS,11S,12aS)-1-{[(Fluoromethyl)sulfanyl]carbonyl}-7-(6-fluoropyridin-3-yl)-11-hydroxy-5,10a,12a-trimethyl-1,2,3,3a,3b,4,5,7,10,10a,10b,11,12,12a-tetradecahydrocyclopenta[5,6]naphtho[1,2-f]indazol-1-yl methoxyacetate], the IC50 is 0.93 nM. Then `CCC(=O)O[C@]1(C(=O)SCC#N)[C@H](C)C[C@H]2[C@@H]3CCC4=Cc5c(cnn5-c5ccc(F)cc5)C[C@]4(C)[C@@]3(F)[C@@H](O)C[C@@]21C` [Example 26, (1R,2R,3aS,3bS,10aS,10bR,11S,12aS)-10b-Fluoro-1-{[(cyanomethyl)sulfanyl]carbonyl}-7-(4-fluorophenyl)-11-hydroxy-2,10a,12a-trimethyl-1,2,3,3a,3b,4,5,7,10,10a,10b,11,12,12a-tetradecahydrocyclopenta[5,6]naphtho[1,2-f]indazol-1-yl propanoate], with 17 nM; and `C[C@H]1C[C@@H]2[C@H]([C@@H](O)C[C@@]3(C)[C@H]2CC[C@]3(OC(=O)C2CC2)C(=O)SCC#N)[C@@]2(C)Cc3cnn(-c4ccc(F)nc4)c3C=C12` [Example 11, (1R,3aS,3bS,5S,10aR,10bS,11S,12aS)-1-{[(Cyanomethyl)sulfanyl]carbonyl}-7-(6-fluoropyridin-3-yl)-11-hydroxy-5,10a,12a-trimethyl-1,2,3,3a,3b,4,5,7,10,10a,10b,11,12,12a-tetradecahydrocyclopenta[5,6]naphtho[1,2-f]indazol-1-yl cyclopropanecarboxylate], with 2.1 nM. The result for `C[C@]12Cc3cnn(-c4ccc(F)nc4)c3C=C1CC[C@H]1[C@@H]3CC[C@](OC(=O)C4CCOC4)(C(=O)SCF)[C@@]3(C)C[C@H](O)[C@@]12F` (single isomer, unassigned) [16 (S)/(R) isomer] reads 1.3 nM; that for `COCC(=O)O[C@]1(C(=O)SCC#N)[C@H](C)C[C@H]2[C@@H]3CCC4=Cc5c(cnn5-c5ccc(F)nc5)C[C@]4(C)[C@@]3(F)[C@@H](O)C[C@@]21C` [Example 30, (1R,2R,3aS,3bS,10aS,10bR,11S,12aS)-10b-Fluoro-1-{[(cyanomethyl)sulfanyl]carbonyl}-7-(6-fluoropyridin-3-yl)-11-hydroxy-2,10a,12a-trimethyl-1,2,3,3a,3b,4,5,7,10,10a,10b,11,12,12a-tetradecahydrocyclopenta[5,6]naphtho[1,2-f]indazol-1-yl methoxyacetate], 1.6 nM.
